Structures can show the parent of a compound that is named as a salt. Where two headings read alike, the source gives them in different places.
What was measured:
[1] = test system: substance P-induced scratching behavior; assay: Inhibitory effect on substance P-induced scratching behavior in mice (MicroAct automatic detection); assay type: in vivo, mouse; conditions: for Number of scratching behavior (means ± standard error): counted for 15 minutes
Excerpt: Substance P-induced scratching behavior in mice which is an intractable pruritus model was induced by the method described in a known document (Togashi et al., European Journal of Pharmacology, 2002, Vol. 435, p. 259 and the like). Further, evaluation of the scratching behavior was objectively carried out by automatic detection using MicroAct (NeuroScience, Inc.) based on the method described in a known document (Hashimoto et al., Allergology International, 2004, Vol. 53, p. 349).
More particularly, at least five days before the evaluation of drug effect, neodymium magnets (diameter: 1 mm, length: 3 mm) coated with Parafilm were subcutaneously inserted into the insteps of both hind limbs of 5 to 7 week-old male ICR mouse (Japan SLC, Inc.) under isoflurane anesthesia. One or two days before the day of the evaluation of drug effect, the hair of the rostral part of the back of the mouse was shaved with a hair clipper under isoflurane anesthesia. At least one hour before the start of the measurement of the number of scratching behavior, each mouse (6 to 8 weeks old) was individually placed in a chamber for measurement (diameter: 11 cm, height: 18 cm) for acclimation. After the acclimation, substance P (5 mmol/L) or phosphate-buffered saline (hereinafter referred to as PBS) as a solvent thereof was intradermally administered (0.05 mL/site) into the rostral part of the back, and the measurement of the number of scratching behavior was started immediately after the administration. The number of scratching behavior was recorded by amplifying electric current induced by the movement of the magnets inserted in the hind limbs in a round coil surrounding the chamber for measurement. The measurement was carried out under unattended environment, and the evaluation of the drug effect was carried out by using the number of scratching behavior occurred for 15 minutes after the start of the measurement as an index.
A test compound or a solvent thereof was administered in an amount of 10 mL/kg 30 to 60 minutes before the start of the measurement of the number of scratching behavior. Varenicline tartrate (Tocris Bioscience) was dissolved in PBS and intraperitoneally administered in a dose of 1, 3 or 10 mg/kg 60 minutes before the start of the measurement of the number of scratching behavior. N-(1-azabicyclo[2.2.2]oct-3(R)-yl)-4-chlorobenzamide hydrochloride (PNU-282987) hydrate (Sigma-Aldrich) was dissolved in PBS and intraperitoneally administered in a dose of 0.3 or 1 mg/kg 45 minutes before the start of the measurement of the number of scratching behavior. The compound of Reference Example 1 was dissolved in PBS and intraperitoneally administered in a dose of 0.1 or 0.3 mg/kg 30 minutes before the start of the measurement of the number of scratching behavior. The compound of Reference Example 2 was dissolved in PBS and intraperitoneally administered in a dose of 1, 3, or 10 mg/kg 45 minutes before the start of the measurement of the number of scratching behavior. The compound of Reference Example 3 was dissolved in distilled water and orally administered in a dose of 1, 3, or 10 mg/kg 30 minutes before the start of the measurement of the number of scratching behavior. The compound of Reference Example 4 was dissolved in PBS and intraperitoneally administered in a dose of 1, 3, or 10 mg/kg 45 minutes before the start of the measurement of the number of scratching behavior. The compound of Reference Example 5 was dissolved in PBS and intraperitoneally administered in a dose of 1, 3, or 10 mg/kg 30 minutes before the start of the measurement of the number of scratching behavior. The compound of Reference Example 6 was dissolved in PBS and intraperitoneally administered in a dose of 1, 3, or 10 mg/kg, 30 minutes before the start of the measurement of the number of scratching behavior. […]

[2] = test system: substance P-induced scratching behavior; conditions: literature; cited from earlier work
[3] = Mus musculus, ip, read-out: Inhibition rate
[4] = i.p., 0.3 mg/kg, substance P 250 nmol/site
[5] = i.p., 1 mg/kg, substance P 250 nmol/site
[6] = i.p., 3 mg/kg, substance P 250 nmol/site
[7] = Mus musculus, ip, 1 mg/kg, substance P 250 nmol/site, read-out: Inhibition rate
[8] = Mus musculus, ip, 3 mg/kg, substance P 250 nmol/site, read-out: Inhibition rate
[9] = Mus musculus, ip, 10 mg/kg, substance P 250 nmol/site, read-out: Inhibition rate
[10] = i.p., 10 mg/kg, substance P 250 nmol/site
[11] = p.o., 10 mg/kg, substance P 250 nmol/site
[12] = Mus musculus, po, read-out: Inhibition rate
[13] = Mus musculus, ip, 0.1 mg/kg, substance P 250 nmol/site, read-out: Inhibition rate
[14] = Mus musculus, ip, 0.3 mg/kg, substance P 250 nmol/site, read-out: Inhibition rate
[15] = i.p., 0.1 mg/kg, substance P 250 nmol/site

For `CN1C[C@@H]2CN(c3ccc(-c4ccccc4)nn3)C[C@@H]2C1` [Reference Example 7, cis-2-methyl-5-(6-phenylpyridazin-3-yl)perhydropyrrolo[3,4-c]pyrrole fumarate], the inhibition at 0.3 mg/kg [1, 3] was 25%, the inhibition at 1 mg/kg [1, 3] was 79% and the inhibition at 3 mg/kg [1, 3] was 66%. The “Number of scratching behavior (means ± standard error)” value (“Number … (means ± standard error)” below) [1, 4] was 101 ± 20, the “Number … (means ± standard error)” value [1, 5] was 37 ± 8 and the “Number … (means ± standard error)” value [1, 6] was 52 ± 9.
For `C=CC[C@@H]1/C=C(\C)C[C@H](C)C[C@H](OC)[C@H]2O[C@@](O)(C(=O)C(=O)N3CCCC[C@H]3C(=O)O[C@H](/C(C)=C/[C@@H]3CC[C@@H](O)[C@H](OC)C3)[C@H](C)[C@@H](O)CC1=O)[C@H](C)C[C@@H]2OC` [tacrolimus], the “Inhibition of substance P-induced scratching behavior in mice (in words)” value [2] is given as “not inhibited”.
With `Cl.O=C(CCCCN1CCOCC1)Nc1ccc(-c2cccnc2)cc1` [Reference Example 6, 5-(4-Morpholinyl)-N-(4-(3-pyridyl)phenyl)pentanamide hydrochloride] the inhibition at 1 mg/kg [1, 7] was 32%, the inhibition at 3 mg/kg [1, 8] was 52% and the inhibition at 10 mg/kg [1, 9] was 104%. For the same compound, the “Number … (means ± standard error)” value [1, 5] was 94 ± 15, the “Number … (means ± standard error)” value [1, 6] was 78 ± 10 and the “Number … (means ± standard error)” value [1, 10] was 36 ± 5.
In the case of `O=C(O)Cc1ccccc1Nc1c(Cl)cccc1Cl` [diclofenac], the “Inhibition of substance P-induced scratching behavior in mice (in words)” value [2] is given as “not inhibited”.
Work on `Cl.O=C(N[C@H]1CN2CCC1CC2)c1cc2cccc(Cl)c2s1` [Reference Example 3, (R)-7-Chloro-N-(quinuclidin-3-yl)benzo[b]thiophene-2-carboxamide hydrochloride] yielded an inhibition at 1 mg/kg ([1]; Mus musculus, po, 1 mg/kg, substance P 250 nmol/site, read-out: Inhibition rate) of 32%, an inhibition at 3 mg/kg ([1]; Mus musculus, po, 3 mg/kg, substance P 250 nmol/site, read-out: Inhibition rate) of 51% and an inhibition at 10 mg/kg ([1]; Mus musculus, po, 10 mg/kg, substance P 250 nmol/site, read-out: Inhibition rate) of 79%. For the same compound, the “Number … (means ± standard error)” value ([1]; p.o., 1 mg/kg, substance P 250 nmol/site) was 71 ± 14, the “Number … (means ± standard error)” value ([1]; p.o., 3 mg/kg, substance P 250 nmol/site) was 57 ± 13 and the “Number … (means ± standard error)” value [1, 11] was 36 ± 8.
In the case of `C[C@H](OC(=O)N[C@@H]1CN2CCC1CC2)c1ccccc1F` [Reference Example 8, (S)-1-(2-fluorophenyl)ethyl(S)-quinuclidin-3-ylcarbamate], the inhibition at 10 mg/kg [1, 12] is reported as 41%, the inhibition at 30 mg/kg [1, 12] is reported as 49% and the “Number … (means ± standard error)” value [1, 11] is reported as 92 ± 17. The “Number … (means ± standard error)” value ([1]; p.o., 30 mg/kg, substance P 250 nmol/site) was 83 ± 19.
With `O=C(N[C@H]1CN2CCC1CC2)c1cc2ccoc2cn1` [Reference Example 9, N-(1-Azabicyclo[2.2.2]oct-3(R)-yl)furo[2,3-c]pyridine-5-carboxamide dihydrochloride] the inhibition at 0.1 mg/kg [1, 13] was 10%, the inhibition at 0.3 mg/kg [1, 14] was 43% and the inhibition at 1 mg/kg [1, 7] was 70%. For the same compound, the “Number … (means ± standard error)” value [1, 15] was 109 ± 21, the “Number … (means ± standard error)” value [1, 4] was 76 ± 18 and the “Number … (means ± standard error)” value [1, 5] was 50 ± 10.
For `COc1ccc2c(c1)c(CC(=O)O)c(C)n2C(=O)c1ccc(Cl)cc1` [indomethacin], the “Inhibition of substance P-induced scratching behavior in mice (in words)” value [2] is given as “not inhibited”.
`Cc1ccc2oc(N3CCN4CCC3CC4)nc2n1.Cl` [Reference Example 5, 2-(1,4-Diazabicyclo[3.2.2]non-4-yl)-5-methyloxazolo[4,5-b]pyridine hydrochloride] gave an inhibition at 1 mg/kg [1, 7] of 25%, an inhibition at 3 mg/kg [1, 8] of 46% and an inhibition at 10 mg/kg [1, 9] of 59%. For the same compound, the “Number … (means ± standard error)” value [1, 5] was 82 ± 6, the “Number … (means ± standard error)” value [1, 6] was 62 ± 11 and the “Number … (means ± standard error)” value [1, 10] was 50 ± 12.
In the case of `Cl.O=C(N[C@H]1CN2CCC1CC2)c1ccc(Cl)cc1` [PNU-282987 hydrate, N-(1-azabicyclo[2.2.2]oct-3(R)-yl)-4-chlorobenzamide hydrochloride, reference compound], the inhibition at 0.3 mg/kg [1, 3] is reported as 42%, the inhibition at 1 mg/kg [1, 3] is reported as 72% and the “Number … (means ± standard error)” value [1, 4] is reported as 81 ± 9. For the same compound, the “Number … (means ± standard error)” value [1, 5] was 48 ± 8.
In the case of `Cl.O=C(N[C@H]1CN2CCC1CC2)c1ccc2c(c1)OCCO2` [Reference Example 10, N-(1-Azabicyclo[2.2.2]oct-3(R)-yl)-2,3-dihydro-1,4-benzodioxin-6-carboxamide hydrochloride], the inhibition at 0.1 mg/kg [1, 3] is reported as 3%, the inhibition at 0.3 mg/kg [1, 3] is reported as 17% and the inhibition at 1 mg/kg [1, 3] is reported as 58%. The “Number … (means ± standard error)” value [1, 15] was 131 ± 18, the “Number … (means ± standard error)” value [1, 4] was 115 ± 19 and the “Number … (means ± standard error)” value [1, 5] was 69 ± 10.
In the case of `Cl.O=C(Oc1ccc(Br)cc1)N1CCN2CCC1CC2` [Reference Example 4, 1,4-Diazabicyclo[3.2.2]nonane-4-carboxylic acid 4-bromophenyl ester hydrochloride], the inhibition at 1 mg/kg [1, 3] is reported as 32%, the inhibition at 3 mg/kg [1, 3] is reported as 63% and the inhibition at 10 mg/kg [1, 3] is reported as 80%. For the same compound, the “Number … (means ± standard error)” value [1, 5] was 89 ± 12, the “Number … (means ± standard error)” value [1, 6] was 59 ± 14 and the “Number … (means ± standard error)” value [1, 10] was 42 ± 6.
Compound `O=C(N[C@@H]1C2CCN(CC2)[C@H]1Cc1cccnc1)c1cc2ccccc2o1` [Reference Example 2, N-(2(S)-(Pyridin-3-ylmethyl)-1-azabicyclo[2.2.2]oct-3(R)-yl)-1-benzofuran-2-carboxamide] has an inhibition at 1 mg/kg [1, 7] of 71%, an inhibition at 3 mg/kg [1, 8] of 38% and an inhibition at 10 mg/kg [1, 9] of 62%. The “Number … (means ± standard error)” value [1, 5] was 67 ± 10, the “Number … (means ± standard error)” value [1, 6] was 97 ± 14 and the “Number … (means ± standard error)” value [1, 10] was 75 ± 8.
In the case of `Cl.Clc1ccc(OC[C@H]2CCN2)cn1` [Reference Example 1, (R)-2-Chloro-5-(2-azetidinylmethoxy)pyridine hydrochloride], the inhibition at 0.1 mg/kg [1, 13] is reported as 107%, the inhibition at 0.3 mg/kg [1, 14] is reported as 121% and the “Number … (means ± standard error)” value [1, 15] is reported as 21 ± 8. For the same compound, the “Number … (means ± standard error)” value [1, 4] was 6 ± 2.

— patent US20140128606A1, “ANTIPRURITIC AGENT” (Toray Industries, Inc., priority 2011, published 2014)
